For 16 molecules, IC50 results are on record in patent publication US12643886B2 (Ontario Institute for Cancer Research (OICR), priority 2021, dated 2026).

Assay type in all cases: biochemical
In test [1] the target is T1, NUAK1 (Homo sapiens, UniProt O60285).
T1 sequence (O60285 1-661): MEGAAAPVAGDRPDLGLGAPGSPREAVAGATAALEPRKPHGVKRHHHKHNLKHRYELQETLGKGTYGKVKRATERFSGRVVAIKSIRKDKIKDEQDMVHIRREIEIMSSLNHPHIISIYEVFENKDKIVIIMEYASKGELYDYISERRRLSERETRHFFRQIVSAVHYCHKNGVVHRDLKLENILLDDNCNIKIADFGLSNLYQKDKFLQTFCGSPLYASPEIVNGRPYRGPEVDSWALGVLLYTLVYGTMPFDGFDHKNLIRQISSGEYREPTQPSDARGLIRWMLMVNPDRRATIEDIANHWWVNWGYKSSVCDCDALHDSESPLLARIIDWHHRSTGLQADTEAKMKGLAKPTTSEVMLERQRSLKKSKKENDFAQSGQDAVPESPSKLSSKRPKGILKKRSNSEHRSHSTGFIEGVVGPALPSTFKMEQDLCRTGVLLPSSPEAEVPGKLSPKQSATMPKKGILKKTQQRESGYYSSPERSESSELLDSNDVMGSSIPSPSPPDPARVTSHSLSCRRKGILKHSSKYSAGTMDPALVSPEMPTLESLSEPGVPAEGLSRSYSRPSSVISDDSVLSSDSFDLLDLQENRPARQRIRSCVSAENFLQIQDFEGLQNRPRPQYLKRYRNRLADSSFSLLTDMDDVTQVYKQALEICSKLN
The experiment in a line: Counter-screen against NUAK1. The protocol:
(§1) To identify small molecule NUAK inhibitors, a biochemical NUAK2 enzymatic assay were outsourced to Eurofins. This assay was done radiometrically using full-length, recombinant enzyme. NUAK2 (h) was incubated with 8 mM MOPS pH 7.0, 0.2 mM EDTA, 300 μM […], 10 mM magnesium acetate and […] (specific activity and concentration as required). The reaction was initiated by the addition of the Mg/ATP mix. After incubation for 40 minutes at room temperature, the reaction was stopped by the addition of phosphoric acid to a concentration of 0.5%. 10 μL of the reaction was then spotted onto a P30 filtermat and washed four times for 4 minutes in 0.425% phosphoric acid and once in methanol prior to drying and scintillation counting. Compounds were routinely counter-screened against Aurora A and NUAK1. The results are shown in Table 1 where IC50's are reported in the following ranges: A: 0.1-10 nM; B: 11-100 nM; C: 101-1000 nM; D: >1000 nM for the compounds of Formula (I)
A general note: A counterscreen serves to expose hits that act by an unwanted route or on another target.

Test [2] deals with T2, Aurora A (Homo sapiens, UniProt O14965).
T2 sequence (O14965 1-403): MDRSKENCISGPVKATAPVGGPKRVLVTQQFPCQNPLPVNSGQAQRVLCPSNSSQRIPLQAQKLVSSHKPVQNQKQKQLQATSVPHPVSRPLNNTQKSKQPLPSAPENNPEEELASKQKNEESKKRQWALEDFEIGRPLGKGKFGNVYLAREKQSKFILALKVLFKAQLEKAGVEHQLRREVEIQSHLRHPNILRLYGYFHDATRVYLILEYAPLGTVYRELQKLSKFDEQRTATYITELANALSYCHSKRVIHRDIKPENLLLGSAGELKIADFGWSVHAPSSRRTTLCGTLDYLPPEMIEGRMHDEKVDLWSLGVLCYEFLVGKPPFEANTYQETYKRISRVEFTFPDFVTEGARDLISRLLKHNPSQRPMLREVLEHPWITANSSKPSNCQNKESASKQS
The experiment in a line: Counter-screen against Aurora A. To be noted: read-out: AUR-A (IC50). The protocol:
as §1

Test [3] has as its target T3, NUAK2 (h) (Homo sapiens, UniProt Q9H093).
T3 construct: This assay was done radiometrically using full-length, recombinant enzyme; purchased Eurofins
T3 sequence (Q9H093 1-628): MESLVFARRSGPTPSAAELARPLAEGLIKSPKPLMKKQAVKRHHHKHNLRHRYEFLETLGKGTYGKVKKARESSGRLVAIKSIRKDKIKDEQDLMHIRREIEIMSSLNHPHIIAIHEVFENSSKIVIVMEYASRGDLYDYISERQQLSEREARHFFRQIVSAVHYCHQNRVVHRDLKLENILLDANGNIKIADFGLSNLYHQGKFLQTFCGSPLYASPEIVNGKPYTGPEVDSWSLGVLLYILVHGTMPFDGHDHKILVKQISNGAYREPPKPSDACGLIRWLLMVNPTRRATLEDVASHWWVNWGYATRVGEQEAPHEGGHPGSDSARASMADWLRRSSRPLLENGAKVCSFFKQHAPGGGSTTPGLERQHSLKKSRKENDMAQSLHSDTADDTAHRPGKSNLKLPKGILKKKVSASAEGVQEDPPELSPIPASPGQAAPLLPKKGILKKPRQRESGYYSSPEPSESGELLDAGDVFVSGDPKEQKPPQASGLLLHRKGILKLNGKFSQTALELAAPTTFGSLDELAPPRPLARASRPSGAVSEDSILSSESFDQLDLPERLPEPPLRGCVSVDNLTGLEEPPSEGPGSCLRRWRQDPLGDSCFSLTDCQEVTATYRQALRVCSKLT
The experiment in a line: NUAK2 enzymatic assay (radiometric, Eurofins). To be noted: full-length recombinant enzyme. The protocol:
as §1

Regarding `COc1cc2c(cc1Nc1ncc(Cl)c(Nc3cccc4c3C(=O)NC4)n1)CN(C)CC2(C)C` [Compound I-16, 7-((5-chloro-2-((6-methoxy-2,4,4-trimethyl-1,2,3,4-tetrahydroisoquinolin-7-yl)amino)pyrimidin-4-yl)amino)isoindolin-1-one], the IC50 (in general, the midpoint of a concentration-inhibition curve) was 11 to 100 nM in test [1], > 1000 nM in test [2] and 11 to 100 nM in test [3].

With `COc1cc2c(cc1Nc1ncc(Cl)c(Nc3cccc4c3C(=O)NC4)n1)CCNC2` [Compound I-17, 7-((5-chloro-2-((7-methoxy-1,2,3,4-tetrahydroisoquinolin-6-yl)amino)pyrimidin-4-yl)amino)isoindolin-1-one], the IC50 in test [1] is 11 to 100 nM; in test [2] it was > 1000 nM; in test [3], 11 to 100 nM.

Take `COc1cc2c(cc1Nc1ncc(Cl)c(Nc3cccc4c3C(=O)NC4)n1)CCN(C(C)C)C2` [Compound I-18, 7-((5-chloro-2-((2-isopropyl-7-methoxy-1,2,3,4-tetrahydroisoquinolin-6-yl)amino)pyrimidin-4-yl)amino)isoindolin-1-one]: the values for the half-inhibitory concentration (IC50) in test [1], in test [2] and in test [3] were 11 to 100 nM, > 1000 nM and 0.1 to 10 nM, respectively.

On to `COc1cc2c(cc1Nc1ncc(Cl)c(Nc3cccc4c3C(=O)NC4)n1)CCN(CCC(F)(F)F)C2` [Compound I-19, 7-((5-chloro-2-((7-methoxy-2-(3,3,3-trifluoropropyl)-1,2,3,4-tetrahydroisoquinolin-6-yl)amino)pyrimidin-4-yl)amino)isoindolin-1-one], for which the IC50 in test [1] is 101 to 1000 nM; in test [2], > 1000 nM; in test [3], 11 to 100 nM.

Turning to `CN1CCN(C2CCN(c3ccc(Nc4ncc(C(F)(F)F)c(Nc5cccc6c5C(=O)NC6)n4)c(OC(F)F)c3)CC2)CC1` [Compound I-20, 7-((2-((2-(difluoromethoxy)-4-(4-(4-methylpiperazin-1-yl)piperidin-1-yl)phenyl)amino)-5-(trifluoromethyl)pyrimidin-4-yl)amino)isoindolin-1-one], the half-inhibitory concentration (IC50) is 11 to 100 nM in test [1], 101 to 1000 nM in test [2] and 0.1 to 10 nM in test [3].

For the molecule `COc1cc2c(cc1Nc1ncc(C(F)(F)F)c(Nc3cccc4c3C(=O)NC4)n1)CN(C)CC2` [Compound I-21, 7-((2-((6-methoxy-2-methyl-1,2,3,4-tetrahydroisoquinolin-7-yl)amino)-5-(trifluoromethyl)pyrimidin-4-yl)amino)isoindolin-1-one], the IC50 fell in the range of 11 to 100 nM in test [1], 101 to 1000 nM in test [2] and 11 to 100 nM in test [3].

Turning to `COc1cc2c(cc1Nc1ncc(C(F)(F)F)c(Nc3cccc4c3C(=O)NC4)n1)CCN(C)C2` [Compound I-22, 7-((2-((7-methoxy-2-methyl-1,2,3,4-tetrahydroisoquinolin-6-yl)amino)-5-(trifluoromethyl)pyrimidin-4-yl)amino)isoindolin-1-one], the values for the IC50 in test [1], in test [2] and in test [3] were 11 to 100 nM, 101 to 1000 nM and 0.1 to 10 nM, respectively.

Take `COc1cc2c(cc1Nc1ncc(Cl)c(Nc3cccc4c3C(=O)NC4)n1)CNCC2` [Compound I-23, 7-((5-chloro-2-((6-methoxy-1,2,3,4-tetrahydroisoquinolin-7-yl)amino)pyrimidin-4-yl)amino)isoindolin-1-one]: the half-inhibitory concentration (IC50) in test [1] was in the range of 11 to 100 nM; in test [2], 101 to 1000 nM; in test [3], 11 to 100 nM.

As to `O=C1NCc2cccc(Nc3nc(Nc4ccc(N5CCNCC5)cc4OC(F)F)ncc3Cl)c21` [Compound I-24, 7-((5-chloro-2-((2-(difluoromethoxy)-4-(piperazin-1-yl)phenyl)amino)pyrimidin-4-yl)amino)isoindolin-1-one], the IC50 in test [1] was 11 to 100 nM; in test [2], > 1000 nM; in test [3], 0.1 to 10 nM.

As for `COc1cc2c(cc1Nc1ncc(Cl)c(Nc3cccc4c3C(=O)NC4)n1)CNCC21CC1` [Compound I-25, 7-((5-chloro-2-((6′-methoxy-2′,3′-dihydro-1′H-spiro[cyclopropane-1,4′-isoquinolin]-7′-yl)amino)pyrimidin-4-yl)amino)isoindolin-1-one], the IC50 in test [1] is 11 to 100 nM; in test [2] it was > 1000 nM; in test [3], 11 to 100 nM.

Regarding `COc1cc2c(cc1Nc1ncc(Cl)c(Nc3cccc4c3C(=O)NC4)n1)CCNCC2` [Compound I-26, 7-((5-chloro-2-((8-methoxy-2,3,4,5-tetrahydro-1H-benzo[d]azepin-7-yl)amino)pyrimidin-4-yl)amino)isoindolin-1-one], the IC50 in test [1] was 11 to 100 nM; in test [2], > 1000 nM; in test [3], 11 to 100 nM.

In the case of `CN1C[C@@H]2CN(c3ccc(Nc4ncc(Cl)c(Nc5cccc6c5C(=O)NC6)n4)c(OC(F)F)c3)C[C@@H]2C1` [Compound I-28, 7-((5-chloro-2-((2-(difluoromethoxy)-4-((3aR,6aS)-5-methylhexahydropyrrolo[3,4-c]pyrrol-2(1H)-yl)phenyl)amino)pyrimidin-4-yl)amino)isoindolin-1-one], the IC50 is 11 to 100 nM in test [1], > 1000 nM in test [2] and 0.1 to 10 nM in test [3].

For `COc1c(Nc2ncc(Cl)c(Nc3cccc4c3C(=O)NC4)n2)ccc(N2C[C@H]3CN(C)C[C@H]3C2)c1F` [Compound I-29, 7-((5-chloro-2-((3-fluoro-2-methoxy-4-((3aR,6aS)-5-methylhexahydropyrrolo[3,4-c]pyrrol-2(1H)-yl)phenyl)amino)pyrimidin-4-yl)amino)isoindolin-1-one], the IC50 was in the range of 11 to 100 nM in test [1], 101 to 1000 nM in test [2] and 11 to 100 nM in test [3].

For `COc1cc2c(cc1Nc1ncc(C(F)(F)F)c(Nc3cccc4c3C(=O)NC4)n1)CNCC2` [Compound I-30, 7-((2-((6-methoxy-1,2,3,4-tetrahydroisoquinolin-7-yl)amino)-5-(trifluoromethyl)pyrimidin-4-yl)amino)isoindolin-1-one], the half-maximal inhibitory concentration (IC50) in test [1] was 0.1 to 10 nM; in test [2], 101 to 1000 nM; in test [3], 0.1 to 10 nM.

`CC(C)(C)N1CCN(C2CCN(c3ccc(Nc4ncc(C(F)(F)F)c(Nc5cccc6c5C(=O)NC6)n4)c(OC(F)F)c3)CC2)CC1` [Compound I-31, 7-((2-((4-(4-(4-(tert-butyl)piperazin-1-yl)piperidin-1-yl)-2-(difluoromethoxy)phenyl)amino)-5-(trifluoromethyl)pyrimidin-4-yl)amino)isoindolin-1-one]: the results for the IC50 in test [1], in test [2] and in test [3] were 11 to 100 nM, 101 to 1000 nM and 0.1 to 10 nM, respectively.

For `CC(C)N1CCN(C2CCN(c3ccc(Nc4ncc(C(F)(F)F)c(Nc5cccc6c5C(=O)NC6)n4)c(OC(F)F)c3)CC2)CC1` [Compound I-32, 7-((2-((2-(difluoromethoxy)-4-(4-(4-isopropylpiperazin-1-yl)piperidin-1-yl)phenyl)amino)-5-(trifluoromethyl)pyrimidin-4-yl)amino)isoindolin-1-one], the figures for the concentration for half-maximal inhibition (IC50) in test [1], in test [2] and in test [3] were 11 to 100 nM, 101 to 1000 nM and 11 to 100 nM, respectively.
